Measurements from US8507724B2 (priority 2008, dated 2013).
Where “and” joins values, the source holds several entries; their conditions need not be identical. Equal values may be shown once. Read-outs that look alike come from different tables or passages of the source.

Assay: in vivo
Format: in vivo
Conditions: rat
Experimental: […] Whole blood samples were taken from a lateral tail vein for plasma separation at time points 0 min, 30 min, 1 h, 2 h and 4 h after p.o. dosing; and 0 min, 15 min, 30 min, 1 h, and 2 h after i.v. dosing, while the terminal samples at time point 6 h after dosing (p.o and Lv.) were taken by cardiac puncture. All time points were taken from a single rat, and all experiments were carried out in triplicate.
The samples were thawn at room temperature and prepared by protein precipitation with ratio 1:2 of plasma and acetonitrile and were centrifuged 10 minutes at 16 100×g (Eppendorf 5415D, Eppendorf AG, Hamburg, Germany) before injection to UPLCIMSMS system. The standard samples were prepared similarly, after spiking blank plasma samples to 0.5, 2, 5, 10, 20, 50, 200, 500, 1000 and 2000 ng/ml of the analyte compounds.
The pharmacokinetic parameters for study compounds were calculated by WinNonlin Pro (Pharsight Corp, CA) using standard noncompartmental methods. The volume of distribution (Vd) was based on the terminal phase. The elimination phase half-life (t1/2) was calculated by least-squares regression analysis of the terminal linear part of the log concentration-time curve. The area under the plasma concentration-time curve (AUC) was determined by use of the linear trapezoidal rule up to the last measurable concentration and thereafter by extrapolation of the terminal elimination phase to infinity. The area under the plasma concentration-time curve without terminal extrapolation is reported as AUC 0-6 h. The mean residence time (MRT) representing the average amount of time a compound remains in a compartment or system was calculated extrapolating the drug concentration profile to infinity. The maximum plasma concentration (cmax) and the time to cmax (tmax) were derived directly from the plasma concentration data. The tentative oral bioavailability (F) was calculated by dividing the AUC after p.o. administration by the AUC after i.v. administration taking into account the differences in dose, i.e. F=AUC(p.o.)/Dose(p.o.)/AUC(i.v)/[…], and reported as percentages (%).
A Waters Acquity chromatographic system (Waters Corp., Milford, Mass., USA) with autosampler, vacuum degasser and column oven was used. The analytical column used for all compounds was a Waters BEH ShieldRP18, (2.1×50 mm, 1.7 μm, Waters Corp, Milford, Mass., USA) together with an on-line filter. The eluents were 0.1% acetic acid (A, pH 3.2) and acetonitrile (B). A linear gradient elution from 5% B to 35% B in 0-2 minutes, from 35% B to 85% B in 2.0-3.0 min was employed, followed by 1 min isocratic elution with […] and column equilibration. The flow rate was 0.5 ml/min and the column oven temperature was 35° C. LC/MS/MS/data was acquired with a Micromass Quattro Premier triple quadrupole mass spectrometer equipped with a LockSpray electrospray ionization source. A negative ion mode ionisation was used. The multiple reaction monitoring (MRM) mode of detection was used. The mass spectrometer and UPLC system were operated under Micromass MassLynx 4.1 software. Complete LC/MS/MS parameters are presented in Appendix I.
Detection/quantitation limits between 2 ng/ml and 10 ng/ml in plasma were obtained for each compound. Calibration curves for quantification were generated by fitting the ratio of the external standard peak areas as a function of the concentration, excluding the point of origin and using 1/x weighting and linear or quadratic fitting. The ranges up to 2000 ng/ml were fitted for calibration curves. […] The overall precisions 12.0-17.0% were calculated from the standard samples (two injection/concentration), using Snedecor equation S=(Σd^2/2n)^0.5, in which S=precision, d is the difference between duplicates expressed as % of the mean value, and N is the number of standard concentration. The concentrations of each study compound in the samples are shown in the Appendices IV-VI.

[1] = 2 mg/kg i.v., individual animals, 2 mg/kg
[2] = in vivo, iv, 2 mg/kg, 2 mg/kg i.v., individual animals, read-out: t1/2
[3] = in vivo, iv, 2 mg/kg, i.v. 2 mg/kg, mean n=3, read-out: t1/2
[4] = 20 mg/kg p.o., individual animals, 20 mg/kg

With `CC(C)c1cc(-c2ccc(Cl)cc2)cc(C(C)C)c1O` [4-(p-Cl—Ph)-propofol, 4-(para-Chlorophenyl)-propofol] the bioavailability (plasma, po, 20 mg/kg p.o. vs 2 mg/kg i.v., read-out: F (%) tentative oral bioavailability) was 0%, the tmax (2 mg/kg i.v., individual animals) was 15 min and the AUC [1] was 36.3 µg·min/mL and 40.8 µg·min/mL and 68.8 µg·min/mL. The CL/F [1] was 55.1 mL/min/kg and 49.1 mL/min/kg and 29.1 mL/min/kg, the MRT [1] was 90.5 min and 46.9 min and the cmax [1] was 0.46 µg/mL and 0.78 µg/mL. For the same compound, the t1/2 [1] was 92.4 min and 107 min, the “ADC 0-6 h” value (i.v. 2 mg/kg, mean n=3) was 46.6 µg·min/mL and the AUC (i.v. 2 mg/kg, mean n=3) was 48.6 µg·min/mL. For the same compound, the CL/F (i.v. 2 mg/kg, mean n=3) was 44.4 mL/min/kg, the “clearance (in words)” value (i.v. dosing, compared to rat liver blood flow) was “in the range of hepatic blood flow” and the half-life [2] was 91.2 min. The half-life [3] was 96.8 min, the concentration in plasma (iv (2 mg/kg), 15 min, individual animals, listed as CK2-3, 2 mg/kg) was 398 ng/mL and 456 ng/mL and the concentration in plasma (iv (2 mg/kg), 30 min, individual animals, listed as CK2-3, 2 mg/kg) was 123 ng/mL and 187 ng/mL and 307 ng/mL. The concentration in plasma (iv (2 mg/kg), 1 h, individual animals, listed as CK2-3, 2 mg/kg) was 149 ng/mL and 156 ng/mL, the concentration in plasma (iv (2 mg/kg), 2 h, individual animals, listed as CK2-3, 2 mg/kg) was 62.4 ng/mL and 74.2 ng/mL and the concentration in plasma (iv (2 mg/kg), 6 h, individual animals, listed as CK2-3, 2 mg/kg) was 14.6 ng/mL and 14.9 ng/mL. The “detection in plasma after oral (p.o.) administration” value (“detection … (p.o.) administration” for short) was “detected in plasma only after i.v. administration”, the “detection … (p.o.) administration” value (listed as CK-2-3) was “not detected” and the half-life (plasma, iv, 2 mg/kg, i.v. administration, read-out: half life (converted)) was about 90 min. It also gave a concentration at 15 min (plasma, iv, 2 mg/kg, iv (2 mg/kg), 15 min, individual animals) of 784 ng/mL, a concentration at 1 h (plasma, iv, 2 mg/kg, iv (2 mg/kg), 1 h, individual animals) of 79.7 ng/mL and a concentration at 2 h (plasma, iv, 2 mg/kg, iv (2 mg/kg), 2 h, individual animals) of 63.9 ng/mL. The concentration at 6 h (plasma, iv, 2 mg/kg, iv (2 mg/kg), 6 h, individual animals) was 13.1 ng/mL.
In the case of `CC(C)c1cc(-c2ccc(Cl)c(F)c2)cc(C(C)C)c1O` [p-(3-F,4-Cl—Ph)-propofol, Para-(3-Fluoro,4-chlorophenyl)-propofol], the CL/F [1] is reported as 24.9 mL/min/kg and 30.4 mL/min/kg and 32.5 mL/min/kg, the t1/2 [1] is reported as 92 min and 99.1 min and the CL/F [4] is reported as 153 mL/min/kg and 434 mL/min/kg and 105 mL/min/kg. For the same compound, the t1/2 [4] was 468 min and 1110 min and 788 min, the CL/F (i.v. 2 mg/kg, mean n=3) was 29.3 mL/min/kg and the bioavailability (in vivo) was about 18%. The “clearance (in words)” value (in vivo, iv) was “intermediate”, the “half life (in words)” value (in vivo, iv) was “intermediate” and the “ADC 0-6 h” value (in vivo, iv, 2 mg/kg) was 64.1 µg·min/mL. The tmax (in vivo, iv, 2 mg/kg) was 15 min, the half-life [2] was 81.8 min and the half-life [3] was 91 min. It also gave a concentration at 30 min (in vivo, iv, 2 mg/kg, iv (2 mg/kg), 30 min, individual animals, read-out: concentration in plasma) of 444 ng/mL, a concentration at 1 h (in vivo, iv, 2 mg/kg, iv (2 mg/kg), 1 h, individual animals, read-out: concentration in plasma) of 316 ng/mL and a concentration at 2 h (in vivo, iv, 2 mg/kg, iv (2 mg/kg), 2 h, individual animals, read-out: concentration in plasma) of 90.3 ng/mL. For the same compound, the concentration at 6 h (in vivo, iv, 2 mg/kg, iv (2 mg/kg), 6 h, individual animals, read-out: concentration in plasma) was 24.1 ng/mL, the “ADC 0-6 h” value (in vivo, po, 20 mg/kg) was 34.6 µg·min/mL and the CL (in vivo, po, 20 mg/kg) was 41.1 mL/min/kg. For the same compound, the Tmax (in vivo, po, 20 mg/kg) was 30 min, the Vd (in vivo, po, 20 mg/kg) was 54.4 L/kg and the bioavailability (in vivo, po, 20 mg/kg) was 17.8%. It also gave a tmax (in vivo, po, 20 mg/kg) of 30 min, a Vd/F (in vivo, po, 20 mg/kg, p.o. 20 mg/kg, mean n=3) of 306 L/kg and a CL/F (in vivo, po, 20 mg/kg, p.o. 20 mg/kg, mean n=3, read-out: CL/F) of 231 mL/min/kg. The half-life (in vivo, po, 20 mg/kg, p.o. 20 mg/kg, mean n=3, read-out: t1/2) was 789 min, the concentration in plasma (iv (2 mg/kg), 15 min, individual animals, listed as CK2-9, 2 mg/kg) was 1100 ng/mL and 689 ng/mL and 535 ng/mL and the concentration in plasma (iv (2 mg/kg), 30 min, individual animals, listed as CK2-9, 2 mg/kg) was 499 ng/mL and 513 ng/mL. For the same compound, the concentration in plasma (iv (2 mg/kg), 1 h, individual animals, listed as CK2-9, 2 mg/kg) was 329 ng/mL and 297 ng/mL, the concentration in plasma (iv (2 mg/kg), 2 h, individual animals, listed as CK2-9, 2 mg/kg) was 74.0 ng/mL and 81.3 ng/mL and the concentration in plasma (iv (2 mg/kg), 6 h, individual animals, listed as CK2-9, 2 mg/kg) was 44.0 ng/mL and 46.6 ng/mL. For the same compound, the “detection … (p.o.) administration” value was “observed in plasma”, the concentration in plasma (po (20 mg/kg), 30 min, individual animals, listed as CK2-9, 20 mg/kg) was 172 ng/mL and 213 ng/mL and 63.0 ng/mL and the concentration in plasma (po (20 mg/kg), 1 h, individual animals, listed as CK2-9, 20 mg/kg) was 182 ng/mL and 26.6 ng/mL and 121 ng/mL. The concentration in plasma (po (20 mg/kg), 2 h, individual animals, listed as CK2-9, 20 mg/kg) was 134 ng/mL and 26.2 ng/mL and 168 ng/mL, the concentration in plasma (po (20 mg/kg), 4 h, individual animals, listed as CK2-9, 20 mg/kg) was 21.5 ng/mL and 97.6 ng/mL and the concentration in plasma (po (20 mg/kg), 6 h, individual animals, listed as CK2-9, 20 mg/kg) was 121 ng/mL and 22.9 ng/mL and 128 ng/mL.
